Laboratory results from US20210130780A1, “METHODS OF GENERATING ENUCLEATED ERYTHROID CELLS USING MYO-INOSITOL” (Rubius Therapeutics, Inc., priority 2019, published 2021).

System: Human CD34+ hematopoietic stem cells (HSCs) / erythroid progenitor cell cultures
Experiment: Effect of myo-inositol on erythroid cell growth and enucleation (three-stage culture, maturation phase)
Settings: third culture medium (maturation phase, 24 well plate) supplemented with an additional 1 g/L myo-inositol vs not supplemented control (basal IMDM 0.0072 g/L), FACS-based cell counting
Experimental: The effect of myo-inositol on erythroid progenitor cell cultures was examined. Human CD34^+ hematopoietic stem cells (HSCs) were cultured in a three-stage process to generate enucleated erythroid cells. In the first stage, the CD34+ HSCs were expanded in a T-flask in a first culture medium containing IMDM supplemented recombinant human insulin, recombinant human transferrin, recombinant human SCF, recombinant IL-3, recombinant Flt-3 ligand, and recombinant human IL-3. Subsequently, cells were transduced with a lentiviral vector encoding phenylalanine ammonia lyase. After transduction, cells were cultured in a 50 L bioreactor culture vessel containing a second culture medium containing IMDM, supplemented with recombinant human erythropoietin, recombinant human SCF, recombinant human IL3, recombinant human insulin, dexamethasone, and recombinant human transferrin. For the third stage of the process (maturation phase), an aliquot of cells were seeded into 24 well plate containing a third culture medium containing IMDM supplemented with recombinant human EPO, recombinant human SCF, recombinant human insulin, recombinant transferrin, human AB serum, and human plasma. […] Periodic sampling and cell counting was performed during the third stage using a fluorescence-activated cell sorting-based cell counter.

**Q.** Which “total cell density of erythroid cells” value (FIG. 1) does the source give for `O[C@H]1[C@H](O)[C@@H](O)[C@H](O)[C@@H](O)[C@H]1O` [myo-inositol] here?
**A.** significantly increase

**Q.** What about the “enucleated erythroid cell density” value (FIG. 2) of the same molecule?
**A.** significantly increase
